Measurements taken from PubChem BioAssay AID330 (DTP/NCI, 2004).
Values joined by “and” are separate entries in the source; they are usually repeats but may differ in a detail not shown here. Equal values may be shown once. Inconclusive results and toxic doses are left out.

System: P388 leukemia ip, CD2F1 mice, survival T/C
Assay: NCI In Vivo Anticancer Drug Screen. Data for tumor model P388 Leukemia (intraperitoneal) in CD2F1 (CDF1) mice
Conditions: endpoint: median survival time, higher = longer survival
Outline: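 Mice carrying the transplanted tumor received test compound or vehicle. Survival was recorded in each group, and the value is the treated-group measurement divided by that of the vehicle-treated control group.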

[1] = dose: 12.5 mg/kg/injection, schedule: Q01DX009 (ip), vehicle: saline
[2] = dose: 50.0 mg/kg/injection, schedule: Q01DX005 (ip), vehicle: saline with Tween-80
[3] = dose: 100.0 mg/kg/injection, schedule: Q01DX005 (ip), vehicle: saline with Tween-80
[4] = dose: 25.0 mg/kg/injection, schedule: Q01DX005 (ip), vehicle: Klucel (hydroxypropylcellulose) (HPC)
[5] = dose: 50.0 mg/kg/injection, schedule: Q01DX005 (ip), vehicle: Klucel (hydroxypropylcellulose) (HPC)
[6] = dose: 100.0 mg/kg/injection, schedule: Q01DX005 (ip), vehicle: Klucel (hydroxypropylcellulose) (HPC)
[7] = dose: 50.0 mg/kg/injection, schedule: Q01DX009 (ip), vehicle: saline with Tween-80
[8] = dose: 100.0 mg/kg/injection, schedule: Q01DX009 (ip), vehicle: saline with Tween-80
[9] = dose: 200.0 mg/kg/injection, schedule: Q01DX009 (ip), vehicle: saline with Tween-80
[10] = dose: 50.0 mg/kg/injection, schedule: Q01DX009 (ip), vehicle: Klucel (hydroxypropylcellulose) (HPC)
[11] = dose: 100.0 mg/kg/injection, schedule: Q01DX009 (ip), vehicle: Klucel (hydroxypropylcellulose) (HPC)
[12] = dose: 200.0 mg/kg/injection, schedule: Q01DX009 (ip), vehicle: Klucel (hydroxypropylcellulose) (HPC)
[13] = dose: 50.0 mg/kg/injection, schedule: Q01DX009 (ip), vehicle: saline
[14] = dose: 100.0 mg/kg/injection, schedule: Q01DX009 (ip), vehicle: saline
[15] = dose: 200.0 mg/kg/injection, schedule: Q01DX009 (ip), vehicle: saline

Q: With O=NN1CCNC1=O as the compound, how does the T/C (dose: 1.5 mg/kg/injection, schedule: Q04DX003 (ip), vehicle: saline) read?
A: 113 % of control

Q: And the T/C (dose: 6.25 mg/kg/injection, schedule: Q01DX009 (ip), vehicle: saline)?
A: 168 % of control

Q: What about the T/C [1] of the same compound?
A: 245 % of control

Q: And the T/C (dose: 12.5 mg/kg/injection, schedule: Q04DX003 (ip), vehicle: saline)?
A: 163 % of control

Q: What about the T/C (dose: 16.5 mg/kg/injection, schedule: Q04DX003 (ip), vehicle: saline) of the same compound?
A: 187 % of control

Q: What about the T/C (dose: 25.0 mg/kg/injection, schedule: Q04DX003 (ip), vehicle: saline) of the same compound?
A: 187 % of control and 213 % of control

Q: What does the source list for CN(C)c1ccnc2c1cnn2C1OC(CO)C(O)C1O (stereo not drawn)?
A: T/C (dose: 25.0 mg/kg/injection, schedule: Q01DX005 (ip), vehicle: saline with Tween-80): 97 % of control; T/C [2]: 108 % of control; T/C [3]: 106 % of control

Q: What does the source list for O=S(=O)(O)CNc1ccc(Br)cc1?
A: T/C (dose: 100.0 mg/kg/injection, schedule: Q04DX003 (ip), vehicle: saline): 99 % of control; T/C (dose: 200.0 mg/kg/injection, schedule: Q04DX003 (ip), vehicle: saline): 99 % of control; T/C (dose: 400.0 mg/kg/injection, schedule: Q04DX003 (ip), vehicle: saline): 89 % of control

Q: How did the T/C (dose: 50.0 mg/kg/injection, schedule: Q04DX003 (ip), vehicle: Klucel (hydroxypropylcellulose) (HPC)) turn out when CC1=CC(=O)C=CC1=Nc1ccc(N(CCCl)CCCl)cc1 was run?
A: 103 % of control

Q: And the T/C (dose: 100.0 mg/kg/injection, schedule: Q04DX003 (ip), vehicle: Klucel (hydroxypropylcellulose) (HPC))?
A: 102 % of control

Q: What does the source list for O=c1[nH]cnc2cc([N+](=O)[O-])ccc12?
A: T/C (dose: 12.0 mg/kg/injection, schedule: Q01DX005 (ip), vehicle: Klucel (hydroxypropylcellulose) (HPC)): 101 % of control; T/C [4]: 101 % of control; T/C [5]: 101 % of control and 106 % of control; T/C [6]: 111 % of control

Q: CCOC1OCN(CCCN(C)C)CC1(C)C (stereo not drawn) was tested. Which T/C [7] did it give?
A: 108 % of control

Q: And the T/C [8]?
A: 123 % of control

Q: And the T/C [9]?
A: 123 % of control

Q: With CC(=O)N(C)c1ccc(N)c2c1C(=O)c1ccccc1C2=O as the compound, how does the T/C [5] read?
A: 106 % of control

Q: What about the T/C [6] of the same compound?
A: 94 % of control

Q: What about the T/C (dose: 200.0 mg/kg/injection, schedule: Q01DX005 (ip), vehicle: Klucel (hydroxypropylcellulose) (HPC)) of the same compound?
A: 106 % of control

Q: For O=NNc1cnc2ccccc2n1, which T/C (dose: 3.12 mg/kg/injection, schedule: Q01DX009 (ip), vehicle: water) is on record?
A: 106 % of control

Q: And the T/C (dose: 6.25 mg/kg/injection, schedule: Q01DX009 (ip), vehicle: water)?
A: 103 % of control

Q: And the T/C (dose: 12.5 mg/kg/injection, schedule: Q01DX009 (ip), vehicle: water)?
A: 106 % of control and 112 % of control

Q: And the T/C (dose: 25.0 mg/kg/injection, schedule: Q01DX009 (ip), vehicle: water)?
A: 120 % of control and 121 % of control

Q: And the T/C (dose: 50.0 mg/kg/injection, schedule: Q01DX009 (ip), vehicle: water)?
A: 113 % of control and 87 % of control

Q: C1COC(NC2CC3CCC2C3)=N1 (stereo not drawn) was tested. Which T/C (dose: 6.25 mg/kg/injection, schedule: Q04DX003 (ip), vehicle: saline with Tween-80) did it give?
A: 100 % of control

Q: And the T/C (dose: 12.5 mg/kg/injection, schedule: Q04DX003 (ip), vehicle: saline with Tween-80)?
A: 100 % of control

Q: What about the T/C (dose: 25.0 mg/kg/injection, schedule: Q04DX003 (ip), vehicle: saline with Tween-80) of the same compound?
A: 100 % of control

Q: OC1C=C(c2ccccc2)C(O)(c2ccccc2)C1 (stereo not drawn) was tested. Which T/C [10] did it give?
A: 100 % of control

Q: What about the T/C [11] of the same compound?
A: 100 % of control

Q: And the T/C [12]?
A: 92 % of control

Q: What does the source list for COc1ccc2cc3n(c(=Nc4ccccc4)c2c1OC)CCc1cc2c(cc1-3)OCO2?
A: T/C (dose: 0.63 mg/kg/injection, schedule: Q01DX009 (ip), vehicle: water): 97 % of control; T/C (dose: 1.25 mg/kg/injection, schedule: Q01DX009 (ip), vehicle: water): 93 % of control; T/C (dose: 2.5 mg/kg/injection, schedule: Q01DX009 (ip), vehicle: water): 101 % of control; T/C (dose: 5.0 mg/kg/injection, schedule: Q01DX009 (ip), vehicle: water): 124 % of control; T/C (dose: 10.0 mg/kg/injection, schedule: Q01DX009 (ip), vehicle: water): 99 % of control; T/C (dose: 20.0 mg/kg/injection, schedule: Q01DX009 (ip), vehicle: water): 101 % of control

Q: How did the T/C [7] turn out when CN(C)c1ccc(C=Nc2ccc3c4c(cccc24)-c2ccccc2-3)cc1 was run?
A: 93 % of control

Q: And the T/C [8]?
A: 86 % of control

Q: And the T/C [9]?
A: 89 % of control

Q: What does the source list for C(=C\c1ccc2c(c1)OCO2)/c1ccnnc1?
A: T/C [13]: 100 % of control; T/C [14]: 97 % of control; T/C [15]: 100 % of control

Q: Which results are given for OC1COCCC(O)(CNCc2ccccc2)C1O (stereo not drawn)?
A: T/C [13]: 98 % of control; T/C [14]: 107 % of control

Q: What does the source list for CC(C)(C)OC(=O)NCCCCC(NC(=O)OCc1ccccc1)C(=O)ON1C(=O)CCC1=O (stereo not drawn)?
A: T/C [2]: 101 % of control; T/C [3]: 102 % of control; T/C (dose: 200.0 mg/kg/injection, schedule: Q01DX005 (ip), vehicle: saline with Tween-80): 107 % of control

Q: Which results are given for CCN(CC)CCN1CC(=O)N2CCCCN2C(=O)C1?
A: T/C (dose: 50.0 mg/kg/injection, schedule: Q01DX005 (ip), vehicle: saline): 104 % of control; T/C (dose: 100.0 mg/kg/injection, schedule: Q01DX005 (ip), vehicle: saline): 102 % of control; T/C (dose: 200.0 mg/kg/injection, schedule: Q01DX005 (ip), vehicle: saline): 95 % of control

Q: What does the source list for CCCCCCCCCC[N+](C)(C)CCCO?
A: T/C [1]: 96 % of control; T/C (dose: 25.0 mg/kg/injection, schedule: Q01DX009 (ip), vehicle: saline): 112 % of control; T/C [13]: 118 % of control

Q: Which T/C [13] does the source give for CNC(=O)N(C)CP(=O)(CN(C)C(=O)NC)CN(C)C(=O)NC here?
A: 97 % of control

Q: And the T/C [14]?
A: 100 % of control

Q: What about the T/C [15] of the same compound?
A: 99 % of control

Q: For CCCCCCCCCCCCCCC(O)c1ccccc1 (stereo not drawn), which T/C (dose: 7.5 mg/kg/injection, schedule: Q01DX009 (ip), vehicle: Klucel (hydroxypropylcellulose) (HPC)) is on record?
A: 113 % of control

Q: What about the T/C (dose: 15.0 mg/kg/injection, schedule: Q01DX009 (ip), vehicle: Klucel (hydroxypropylcellulose) (HPC)) of the same compound?
A: 115 % of control

Q: What about the T/C (dose: 30.0 mg/kg/injection, schedule: Q01DX009 (ip), vehicle: Klucel (hydroxypropylcellulose) (HPC)) of the same compound?
A: 110 % of control

Q: With CC(NNC(=S)N1CCN(c2ccccn2)CC1)c1ccccn1 (stereo not drawn) as the compound, how does the T/C (dose: 12.5 mg/kg/injection, schedule: Q01DX005 (ip), vehicle: Klucel (hydroxypropylcellulose) (HPC)) read?
A: 99 % of control

Q: What about the T/C [4] of the same compound?
A: 101 % of control

Q: What about the T/C [5] of the same compound?
A: 109 % of control and 95 % of control

Q: How did the T/C (dose: 25.0 mg/kg/injection, schedule: Q01DX009 (ip), vehicle: saline with Tween-80) turn out when Cc1ccc(S(=O)(=O)N(CCC(c2ccccc2)c2ccccc2)S(=O)(=O)c2ccc(C)cc2)cc1 was run?
A: 102 % of control

Q: And the T/C [7]?
A: 98 % of control

Q: What about the T/C [8] of the same compound?
A: 100 % of control

Q: How did the T/C (dose: 12.5 mg/kg/injection, schedule: Q01DX009 (ip), vehicle: saline + Tween-80 + alcohol) turn out when CC(=O)Oc1c(C)c(C)c2c(c1C)C(I)CC(C)(CCC(C)CCC(C)CCC(C)C)O2 (stereo not drawn) was run?
A: 103 % of control

Q: What about the T/C (dose: 25.0 mg/kg/injection, schedule: Q01DX009 (ip), vehicle: saline + Tween-80 + alcohol) of the same compound?
A: 113 % of control

Q: What about the T/C (dose: 50.0 mg/kg/injection, schedule: Q01DX009 (ip), vehicle: saline + Tween-80 + alcohol) of the same compound?
A: 107 % of control

Q: What about the T/C (dose: 100.0 mg/kg/injection, schedule: Q01DX009 (ip), vehicle: saline + Tween-80 + alcohol) of the same compound?
A: 106 % of control

Q: What about the T/C (dose: 200.0 mg/kg/injection, schedule: Q01DX009 (ip), vehicle: saline + Tween-80 + alcohol) of the same compound?
A: 119 % of control

Q: What about the T/C (dose: 400.0 mg/kg/injection, schedule: Q01DX009 (ip), vehicle: saline + Tween-80 + alcohol) of the same compound?
A: 87 % of control

Q: Which results are given for COc1c(OCC(O)CN2CCOCC2)c2c(C)coc2c2ccoc12 (stereo not drawn)?
A: T/C (dose: 60.0 mg/kg/injection, schedule: Q01DX005 (ip), vehicle: Klucel (hydroxypropylcellulose) (HPC)): 100 % of control; T/C (dose: 120.0 mg/kg/injection, schedule: Q01DX005 (ip), vehicle: Klucel (hydroxypropylcellulose) (HPC)): 105 % of control

Q: How did the T/C (dose: 100.0 mg/kg/injection, schedule: Q04DX002 (ip), vehicle: saline with Tween-80) turn out when CSCNc1ncnc2c1ncn2C1OC(CO)C(O)C1O (stereo not drawn) was run?
A: 120 % of control

Q: Which T/C [10] does the source give for Cc1cccc(N=Cc2ccc(C=Nc3cccc(C)c3C)cc2)c1C here?
A: 92 % of control

Q: What about the T/C [11] of the same compound?
A: 91 % of control

Q: What about the T/C [12] of the same compound?
A: 86 % of control

Q: Which results are given for CC(C)C(NC(=O)OC(C)(C)C)C(=O)ON1C(=O)CCC1=O (stereo not drawn)?
A: T/C [7]: 118 % of control; T/C [8]: 111 % of control; T/C [9]: 99 % of control

Q: For C=C(C)Cn1ccn(C)c1=S, which T/C (dose: 100.0 mg/kg/injection, schedule: Q04DX003 (ip), vehicle: saline with Tween-80) is on record?
A: 96 % of control

Q: What about the T/C (dose: 200.0 mg/kg/injection, schedule: Q04DX003 (ip), vehicle: saline with Tween-80) of the same compound?
A: 98 % of control

Q: What about the T/C (dose: 400.0 mg/kg/injection, schedule: Q04DX003 (ip), vehicle: saline with Tween-80) of the same compound?
A: 102 % of control
